Reference: patent US20260042754A1, “Substituted Bicyclic Heteroaryl Sulfonamide Derivatives for the Treatment of Cancer” (NODUS ONCOLOGY LIMITED, priority 2022, published 2026)

Experiments:
NCI-H1650 = assay: Modified cell proliferation assay (CellTiter-Glo), NCI-H1650; assay type: cell-based; settings: Homo sapiens, NCI-H1650; modified protocol, 384-well, 300 cells per well, 120 h; highest concentration tested 30000 nM; read-out: NCI-H1650 GI50 (high PARG dependency)
Protocol: The cell proliferation assay protocol was modified and used for RMUG-S for Examples 12-44, and subsequently used to test Examples 1-44 in the NCI-H1650 cell line.
NCI-H1650 (ATCC, #CRL-5883) or RMUG-S were seeded on day 1 at 300 cells per well in a 384-well plate (Greiner, #781080) that assure assay linearity and optimal signal intensity in 25 μL of RPMI1640 media (Pan Biotech, #P04-22100) containing 10% FCS (Capricorn, #FBS-11A; Lot. CP22-5141) and 1% Glutamine (Pan Biotech, #P04-80100). After incubation for 24 h in humidified chambers at 37° C./5% CO2, compounds/DMSO were dispensed at different concentrations using an Echo 520 (Beckman Coulter). Cells were further incubated for 120 h at 37° C. and 5% CO2. Cells treated with the compound vehicle DMSO were used as negative controls and cells treated with 10 μM Staurosporine (LC Laboratories, #S-9300) served as positive controls.
At day 6 the CellTiter Glo Reagent was prepared according to the instructions of the kit (Promega Inc.): Reagent was mixed 1:1 with cell culture medium. Thereon, mixture and assay plates were equilibrated at room temperature for 20 min. Equal volumes of the reagent-medium-mixture were added to the volume of culture medium present in each well. The plates were mixed at […] for 2 minutes on an orbital shaker (Timix5, Edmund Buehler GmbH). The microplates were then incubated at room temperature for 10 minutes for stabilization of the luminescent signal. Following incubation, the luminescence was recorded on a Victor X5 microplate reader (Perkin Elmer) using a 200 ms integration time. The data was then analyzed with Excel using the XLFIT Plugin (dose response Fit 205) for determination of the concentration necessary for half-maximal inhibition (i.e. the inflection point of the fitted curve).
As quality control the Z′-factor was calculated from 16 positive and negative control values. Only assay results showing a Z′-factor≥0.5 were used for further analysis.

[1] = molecular target: human PARG (PARG-NanoLuc fusion in HEK293T cells) (Homo sapiens (Human), UniProt Q86W56); assay: PARG NanoBRET-based cellular target engagement assay; assay type: cell-based; settings: HEK293T cells transfected with PARG-NanoLuc, NanoBRET probe 0.89 μM, 2 hours; read-out: PARG TE IC50
Sequence of human PARG (PARG-NanoLuc fusion in HEK293T cells) (Q86W56 whole entry, the tested form may be a part): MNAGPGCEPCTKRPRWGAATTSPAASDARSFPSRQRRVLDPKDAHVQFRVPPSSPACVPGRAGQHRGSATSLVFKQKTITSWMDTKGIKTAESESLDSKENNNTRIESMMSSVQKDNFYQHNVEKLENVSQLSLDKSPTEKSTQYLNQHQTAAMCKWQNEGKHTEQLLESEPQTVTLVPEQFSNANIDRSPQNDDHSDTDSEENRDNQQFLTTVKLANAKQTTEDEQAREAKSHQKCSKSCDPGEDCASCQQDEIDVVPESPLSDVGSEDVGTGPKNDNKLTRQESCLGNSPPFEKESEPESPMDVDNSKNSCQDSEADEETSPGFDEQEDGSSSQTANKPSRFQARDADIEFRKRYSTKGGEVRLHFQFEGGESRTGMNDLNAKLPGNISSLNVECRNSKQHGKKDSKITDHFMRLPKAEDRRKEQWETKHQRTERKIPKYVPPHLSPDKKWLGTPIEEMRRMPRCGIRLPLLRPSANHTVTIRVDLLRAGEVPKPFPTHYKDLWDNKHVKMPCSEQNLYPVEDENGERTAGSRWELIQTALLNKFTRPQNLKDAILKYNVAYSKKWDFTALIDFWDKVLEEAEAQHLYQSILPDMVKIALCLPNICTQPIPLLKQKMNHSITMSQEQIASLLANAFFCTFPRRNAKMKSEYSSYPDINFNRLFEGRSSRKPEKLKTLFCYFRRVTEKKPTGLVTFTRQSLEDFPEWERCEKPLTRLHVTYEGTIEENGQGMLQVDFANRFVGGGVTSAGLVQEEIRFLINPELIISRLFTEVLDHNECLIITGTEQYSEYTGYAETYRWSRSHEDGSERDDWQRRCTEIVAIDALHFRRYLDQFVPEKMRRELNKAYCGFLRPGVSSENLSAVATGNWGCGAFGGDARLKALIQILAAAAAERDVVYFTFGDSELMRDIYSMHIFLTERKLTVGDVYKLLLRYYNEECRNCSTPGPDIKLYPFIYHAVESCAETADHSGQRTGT
Protocol: PARG Nano-luciferase construct: The PARG-NanoLuc® fusion vector was generated by Promega, by inserting the full length human PARG cDNA sequence encoding the 976 amino acid protein (Gene ID: 8505, UniProt: Q86W56) into the pNLF1-C [CMV/Hygro] vector (C-terminal fusions with NanoLuc® enzyme).
PARG target engagement tracer synthesis: The NanoBRET tracer for PARG was prepared following a previously reported general tracer synthesis procedure.
PARG Probe Displacement Assay Using NanoBRET: HEK293T (DSMZ #ACC 635) cells transiently transfected with the PARG-NanoLuc fusion construct were resuspended in phenol red-free OptiMEM (Gibco #11058-021) to a concentration of 2.4×10^5 cells/mL. 9 μL per well were then added to a white 384-well low volume microplate (Greiner #784080) and incubated for 24 hours under standard growth conditions.
Then compound was dispensed into each well using an Echo dispenser (BeckmanCoulter) to yield the pre-specified final concentration of the range of concentrations to be tested (typically 8-point serial concentrations ranging from either from 0.01 to 10 μM, or from 0.001 to 1 μM, or from 0.0001 to 0.1 μM), and being volume-corrected with 100% DMSO (0.5% final DMSO concentration in reaction mixtures).
After mixing and an incubation at room temperature for 15 min 1 μl of the NanoBRET probe (at 0.89 μM final concentration) was added to the microplate using a multichannel pipette. The plate was mixed and incubated in a 5% CO2 environment at 37° C. for 2 hours, and then 5 μL per well of a solution consisting of a 1:31.25 dilution of Nano-Glo substrate (Promega) and a 1:500 dilution of NanoLuc extracellular inhibitor (Promega) in phenol red-free OptiMEM was added to each well followed by another mixing step. Filtered luminescence was measured on an EnVision plate reader (PerkinElmer) equipped with a 460 nm filter (donor) and a 645 nm filter (acceptor). BRET ratios were plotted as concentration-response curves fitted to a sigmoidal 4-parameter logistic model to calculate IC50 values (Scigilian Analyze).

[2] = molecular target: Recombinant His-tagged human PARG protein (Homo sapiens (Human), UniProt Q86W56); assay: PARG enzymatic assay (TFMU-ADPr fluorescence); assay type: biochemical; settings: 1 nM enzyme, 200 μM TFMU-ADPr, read after 30 minutes
Sequence of Recombinant His-tagged human PARG protein (Q86W56 whole entry): as the sequence (Q86W56 whole entry, the tested form may be a part) above
Protocol: Inhibition of PARG enzymatic activity by compounds was determined as follows: Recombinant His-tagged human PARG protein expressed in Sf21 insect cells (Adipogen AG, #40T-0022) was aliquoted and stored at −80° C. until use. The artificial enzyme substrate 4-(trifluoromethyl)umbelliferone (TFMU)-ADPr was prepared essentially as described (Drown B S et al, Cell Chemical Biology 2018) and stored at −20° C. as 10 mM stock solutions in DMSO (dimethyl sulfoxide) until use. For reactions, typical final concentration of the enzyme was 1 nM and of the TFMU-ADPr 200 μM. Reactions were carried out in black 384-well low volume round bottom assay plates (Corning, #4514) in a final volume of 10 μL. To this end, PARG was diluted to 1.67 nM in reaction buffer (50 mM K2HPO4, 50 mM KCl, 10 mM β-mercaptoethanol, pH 7.4) and 6 μL were dispensed per assay well using a multichannel pipette. Then compound was dispensed into each well using an Echo dispenser (BeckmanCoulter) to yield the pre-specified final concentration of the range of concentrations to be tested (typically 8-point serial concentrations ranging from either from 0.01 to 10 μM, or from 0.001 to 1 μM, or from 0.0001 to 0.1 μM), and being volume-corrected with 100% DMSO (0.5% final DMSO concentration in reaction mixtures). Plates were mixed, and after 15 minutes 4 μL TFMU-ADPr was added into each well using a multichannel pipette followed by brief mixing. Fluorescence intensity signals were then measured after 30 minutes on an EnVision microplate reader (PerkinElmer) using 380/10 nm and 535/25 nm filters for the excitation and emission, respectively (gain: 150). The assay window was set using DMSO control (top) and a control containing no PARG enzyme (bottom). Delta values were plotted as concentration-response curves fitted to a sigmoidal 4-parameter logistic model to calculate IC50 values (Scigilian Analyze).

| Structure (SMILES) | GI50 (NCI-H1650) [nM] | IC50 [1] [nM] | IC50 [2] [nM] |
| --- | --- | --- | --- |
| CO/N=c1\[nH]c2c(N3CCN(C(=O)C4(C)CCC4)[C@H](C)C3)cc(S(=O)(=O)NC3(C)CC3)cc2c(=O)n1Cc1cnn(C)c1 [Example 38, (R,E)-2-(methoxyimino)-3-((1-methyl-1H-pyrazol-4-yl)methyl)-8-(3-methyl-4-(1-methylcyclobutane-1-carbonyl)piperazin-1-yl)-N-(1-methylcyclopropyl)-4-oxo-1,2,3,4-tetrahydroquinazoline-6-sulfonamide] | < 500 | < 30 | < 30 |
| CO/N=c1\[nH]c2c(N3CCN(C(=O)C4(C#N)CC4)[C@H](C)C3)cc(S(=O)(=O)NC3(C)CC3)cc2c(=O)n1Cc1cnn(C)c1 [Example 33, (R,E)-8-(4-(1-cyanocyclopropane-1-carbonyl)-3-methylpiperazin-1-yl)-2-(methoxyimino)-3-((1-methyl-1H-pyrazol-4-yl)methyl)-N-(1-methylcyclopropyl)-4-oxo-1,2,3,4-tetrahydroquinazoline-6-sulfonamide] | < 500 | < 30 | < 30 |
| CO/N=c1\[nH]c2c(-c3ccc(C(=O)N(C)C)nc3)cc(S(=O)(=O)NC3(C)CC3)cc2c(=O)n1Cc1cnn(C)c1 [Example 19, (E)-5-(2-(methoxyimino)-3-((1-methyl-1H-pyrazol-4-yl)methyl)-6-(N-(1-methylcyclopropyl)sulfamoyl)-4-oxo-1,2,3,4-tetrahydroquinazolin-8-yl)-N,N-dimethylpicolinamide] | 500 to 2000 | < 30 | < 30 |
| CO/N=c1\[nH]c2c(N3CCN(C(=O)N4CCCC4)[C@H](C)C3)cc(S(=O)(=O)NC3(C)CC3)cc2c(=O)n1Cc1cnn(C)c1 [Example 40, (R,E)-2-(methoxyimino)-3-((1-methyl-1H-pyrazol-4-yl)methyl)-8-(3-methyl-4-(pyrrolidine-1-carbonyl)piperazin-1-yl)-N-(1-methylcyclopropyl)-4-oxo-1,2,3,4-tetrahydroquinazoline-6-sulfonamide] | < 500 | < 30 | < 30 |
| CCO/N=c1\[nH]c2ccc(S(=O)(=O)NC3(C)CC3)cc2c(=O)n1Cc1cnn(C)c1 [Example 10, 2-ethoxyimino-N-(1-methylcyclopropyl)-3-[(1-methylpyrazol-4-yl)methyl]-4-oxo-1H-quinazoline-6-sulfonamide] | 500 to 2000 | 30 to 99 | < 30 |
| CON=c1[nH]c2ccc(S(=O)(=O)NC3(C#N)CC3)cc2c(=O)n1Cc1cnn(C)c1 [Example 9, N-(1-cyanocyclopropyl)-2-methoxyimino-3-[(1-methylpyrazol-4-yl)methyl]-4-oxo-1H-quinazoline-6-sulfonamide] | > 2000 | 30 to 99 | < 30 |
| CO/N=c1\[nH]c2c(-c3ccc(C(N)=O)cc3)cc(S(=O)(=O)NC3(C)CC3)cc2c(=O)n1Cc1cnn(C)c1 [Example 15, (E)-4-(2-(methoxyimino)-3-((1-methyl-1H-pyrazol-4-yl)methyl)-6-(N-(1-methylcyclopropyl)sulfamoyl)-4-oxo-1,2,3,4-tetrahydroquinazolin-8-yl)benzamide] | > 2000 | 30 to 99 | < 30 |
| CO/N=c1\[nH]c2c(N3CCN(C(=O)N4CCC(F)(F)C4)[C@H](C)C3)cc(S(=O)(=O)NC3(C)CC3)cc2c(=O)n1Cc1cnn(C)c1 [Example 36, (R,E)-8-(4-(3,3-difluoropyrrolidine-1-carbonyl)-3-methylpiperazin-1-yl)-2-(methoxyimino)-3-((1-methyl-1H-pyrazol-4-yl)methyl)-N-(1-methylcyclopropyl)-4-oxo-1,2,3,4-tetrahydroquinazoline-6-sulfonamide] | < 500 | < 30 | < 30 |
| CO/N=c1\[nH]c2c(N3CCN(C(=O)N(C)CC(F)(F)F)[C@H](C)C3)cc(S(=O)(=O)NC3(C)CC3)cc2c(=O)n1Cc1cnn(C)c1 [Example 37, (R,E)-4-(2-(methoxyimino)-3-((1-methyl-1H-pyrazol-4-yl)methyl)-6-(N-(1-methylcyclopropyl)sulfamoyl)-4-oxo-1,2,3,4-tetrahydroquinazolin-8-yl)-N,2-dimethyl-N-(2,2,2-trifluoroethyl)piperazine-1-carboxamide] | < 500 | < 30 | < 30 |
| CO/N=c1\[nH]c2c(-c3ccc(C(C)=O)cc3)cc(S(=O)(=O)NC3(C)CC3)cc2c(=O)n1Cc1cnn(C)c1 [Example 16, (E)-8-(4-acetylphenyl)-2-(methoxyimino)-3-((1-methyl-1H-pyrazol-4-yl)methyl)-N-(1-methylcyclopropyl)-4-oxo-1,2,3,4-tetrahydroquinazoline-6-sulfonamide] | > 2000 | < 30 | < 30 |
| CO/N=c1\[nH]c2c(-c3cnc(C(=O)N(C)C)[nH]3)cc(S(=O)(=O)NC3(C)CC3)cc2c(=O)n1Cc1cnn(C)c1 [Example 23, (E)-5-(2-(methoxyimino)-3-((1-methyl-1H-pyrazol-4-yl)methyl)-6-(N-(1-methylcyclopropyl)sulfamoyl)-4-oxo-1,2,3,4-tetrahydroquinazolin-8-yl)-N,N-dimethyl-1H-imidazole-2-carboxamide] | 500 to 2000 | < 30 | < 30 |
| CO/N=c1\[nH]c2c(N3CCN(C(=O)C4CCCC4)[C@H](C)C3)cc(S(=O)(=O)NC3(C)CC3)cc2c(=O)n1Cc1cnn(C)c1 [Example 39, (R,E)-8-(4-(cyclopentanecarbonyl)-3-methylpiperazin-1-yl)-2-(methoxyimino)-3-((1-methyl-1H-pyrazol-4-yl)methyl)-N-(1-methylcyclopropyl)-4-oxo-1,2,3,4-tetrahydroquinazoline-6-sulfonamide] | < 500 | < 30 | < 30 |
